Results reported in paper PMC9673142, “1,3-Diarylpyrazolyl-acylsulfonamides Target HadAB/BC Complex in Mycobacterium tuberculosis” (ACS Infectious Diseases, 2022).
Converted amounts (≈) assume the structure as drawn. “And” between values parts separate entries of the source, which are not always exact repeats. Equal entries are not always repeated. “Also recorded” adds a separate entry of the source. Where two headings read alike, the source gives them in different places.

Columns and labels:
Mtb H37Rv mc^26206 = assay: microbe, parasite or virus in culture; format: cell-based; settings: Mycobacterium tuberculosis, read-out: MIC Mtb WT
Mtb HadAB = Mtb HadAB (Mycobacterium tuberculosis, UniProt I6WYY7+P9WFK1); assay: biochemical; settings: trans-2-C16:1-CoA 60 μM, mean ± SD of duplicate assays
Mtb HadBC = format: biochemical; settings: compound 50 μM, HadBC 130 nM, trans-2-C16:1-CoA 25 μM
[1] = target: HadA, HadB, BCG_0547c (HadD) (Mycobacterium bovis BCG, UniProt I6WYY7+P9WFK1); assay: biochemical; format: binding; settings: for competition from the bead matrices, HadA, HadB and HadD: at 0.49 μM, n = 3
BCG_2231 (DlaT, Rv2215) = BCG_2231 (DlaT, Rv2215) (Mycobacterium bovis, UniProt P65634); assay: biochemical; format: binding, Mycobacterium bovis BCG
HepG2 = HepG2 cytotoxicity; settings: Homo sapiens
Mtb = format: cell-based, Mycobacterium tuberculosis
Mtb H37Rv = assay: microbe, parasite or virus in culture; format: cell-based; settings: Mycobacterium tuberculosis
Mtb H37RvMA = assay: microbe, parasite or virus in culture; format: cell-based; settings: Middlebrook 7H9/glycerol/ADC/tween-80
[2] = target: T1, BCG_0628c (lpqN, Rv0583c) (Mycobacterium tuberculosis, UniProt O53780); assay: biochemical; format: binding, Mycobacterium bovis BCG
T1 sequence (O53780 20-228): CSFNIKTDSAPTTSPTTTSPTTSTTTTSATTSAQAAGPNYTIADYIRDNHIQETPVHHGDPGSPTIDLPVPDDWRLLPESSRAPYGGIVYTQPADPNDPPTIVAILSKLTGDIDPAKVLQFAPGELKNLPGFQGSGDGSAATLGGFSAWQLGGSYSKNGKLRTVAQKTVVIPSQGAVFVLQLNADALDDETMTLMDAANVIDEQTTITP

[3] = system: mycolic acid biosynthesis in Mtb H37Rv mc^26206; format: cell-based; settings: 3× MIC, 24 h
[4] = HepG2, read-out: HepG2 IC50 (galactose)
[5] = HepG2, read-out: HepG2 IC50 (glucose)

Row | SMILES | MIC (Mtb H37Rv mc^26206) | IC50 (Mtb HadAB; HadAB IC50, HadAB 22 nM) | HadBC % inhibition at 50 μM (Mtb HadBC) | Mtb pMIC99 (Mtb) | MIC (Mtb H37Rv; read-out: Mtb MIC) | other results
1 | CS(=O)(=O)NC(=O)CCc1cn(-c2ccc(Cl)cc2)nc1-c1ccc(Cl)cc1 [Compound 2] | < 0.625 µM | 0.13 ± 0.02 µM | did not inhibit; also recorded: No inhibition | 5.5 | 4.7 µM (≈ 2.06 µg/mL) | solubility (physchem): 100 µM (≈ 43.8 µg/mL); IC50 [1]: < 0.49 µM; competition from the bead matrices, HadA, HadB and HadD [1]: 56–62%; Kd (BCG_2231 (DlaT, Rv2215)): 6.6 µM; IC50 (HepG2; [4]): > 50 µM; IC50 (HepG2; [5]): > 50 µM; MIC (Mtb H37Rv; read-out: Mtb MIC (Middlebrook 7H9/DPCC/casitone/Tx)): 0.8 µM (≈ 0.351 µg/mL); MIC (Mtb H37Rv; read-out: Mtb MIC (Middlebrook 7H9/DPPC/cholesterol/BSA/Tx)): 4.7 µM (≈ 2.06 µg/mL); MIC (Mtb H37Rv; read-out: Mtb MIC (Middlebrook 7H9/casitone/Tx)): 0.6 µM (≈ 0.263 µg/mL); MIC (Mtb H37Rv; read-out: Mtb MIC (Middlebrook 7H9/glucose/BSA/Tx)): 4.7 µM (≈ 2.06 µg/mL)
2 | CS(=O)(=O)NC(=O)CCc1cn(-c2ccc(Br)cc2)nc1-c1ccc(Cl)cc1 [Compound 9] | – | – | – | – | – | IC50 (Mtb HadAB; HadAB 22 nM, read-out: HadAB IC50): 0.03 ± 0.01 µM
3 | CS(=O)(=O)NC(=O)CCc1cn(-c2ccc(Br)cc2)nc1-c1ccncc1 [Compound 1] | – | 0.1 ± 0.01 µM | – | 6.2 | – | solubility (physchem): 190 µM (≈ 85.4 µg/mL); IC50 [1]: < 0.16 µM; competition from the bead matrices, HadA, HadB and HadD [1]: 91–92%; Kd (BCG_2231 (DlaT, Rv2215)): 1 µM; Compound 1 MIC, H37RvMA (WT reference strain) (Mtb H37RvMA): 1.9 µM; MIC (Mtb H37RvMA; Mycobacterium tuberculosis, H37RVMA, read-out: Compound 1 MIC, H37RvMA (WT reference strain)): 1.9 µM (≈ 0.854 µg/mL); IC50 (HepG2; [4]): > 50 µM; IC50 (HepG2; [5]): > 50 µM; Kd [2]: 1.8 µM
4 | CCc1c(COC(=O)NS(C)(=O)=O)c(-c2ccc(Cl)cc2)nn1-c1ccc(Cl)cc1 [Compound 15] | 3.9 µM (≈ 1.83 µg/mL) | 28 µM | No inhibition | – | > 50 µM | –
5 | O=C(O)CCc1cn(-c2ccc(Br)cc2)nc1-c1ccc(Cl)cc1 [Compound 10] | 1.5 µM (≈ 0.609 µg/mL) | 3.3 ± 1.7 µM | No inhibition | – | > 50 µM | –
6 | CS(=O)(=O)NC(=O)CCc1cn(-c2ccc(Cl)cc2)nc1-c1ccc(C#CCN)cc1 [Compound 4] | – | – | – | 5.4 | – | –
7 | CS(=O)(=O)c1nnc(Cc2cn(-c3ccc(Cl)cc3)nc2-c2ccncc2)o1 [Compound 13] | 3.75 µM (≈ 1.56 µg/mL) | 102 ± 17 µM | 37±5% | – | 62.5 µM (≈ 26 µg/mL) | inhibition of biosynthesis of mycolic acids [3]: 0–49%
8 | CS(=O)(=O)NC(=O)NCc1cc(-c2ccc(Br)cc2)oc1-c1ccncc1 [Compound 14] | < 0.243 µM | 0.02 ± 0.01 µM | – | – | – | –
9 | CS(=O)(=O)NC(=O)NCc1cn(-c2ccc(C(F)(F)F)nc2)nc1-c1ccncc1 [Compound 11] | 0.625 µM (≈ 0.275 µg/mL) | 0.062 µM and 0.06 µM | – | – | – | –
10 | O=c1[nH]nc(CCc2cn(-c3ccc(Br)cc3)nc2-c2ccc(Cl)cc2)o1 [Compound 12] | 3.12 µM (≈ 1.39 µg/mL) | 4.24 µM and 4.2 µM | – | – | 19 µM (≈ 8.47 µg/mL) | –
